Experimental data taken from patent US20110312941A1, “1,4-DISUBSTITUTED PIPERIDINES AS VASOPRESSIN RECEPTOR VIA ANTAGONISTS” (VANTIA LIMITED, priority 2009, published 2011).

Target: T1, cloned human V1a receptor (Homo sapiens, UniProt P37288)
T1 construct: host or cells: human brain astrocytoma 1321N1 cells
Test: in vitro functional calcium mobilisation assay (FLIPR), antagonist activity, 1321N1 cells, 250 pM AVP
Assay type: cell-based
Settings: functional pKi derived from pIC50 (Equation 1), FLIPR Ca2+ mobilisation, 1321N1 cells expressing cloned human V1a receptor; for Ki: read-out: Mean fpKi (Human V1a) (converted)
Procedure: The primary assay which may be used to determine the ability of the compounds of formula (1) to inhibit the vasopressin V1a receptor is an in vitro functional calcium mobilisation assay (FLIPR) that measures antagonist activity at a cloned human V1a receptor. The assay is described below.
The antagonist activity of compounds of formula (1) were determined in a Calcium (Ca2+) mobilisation assay using whole cells (human brain astrocytoma 1321N1 cells, ex Perkin Elmer) genetically modified to stably express a cloned human V1a receptor. Dose response curves were determined by displacement of a single concentration of agonist (250 pM AVP, ex Sigma) with increasing concentrations of compound. A pIC50 value is determined by non-linear regression to a 4-parameter logistic equation and a functional pKi (fpKi) derived using Equation 1.
where A=agonist single conc, and A50=the agonist EC50.

T1 sequence (P37288 whole entry): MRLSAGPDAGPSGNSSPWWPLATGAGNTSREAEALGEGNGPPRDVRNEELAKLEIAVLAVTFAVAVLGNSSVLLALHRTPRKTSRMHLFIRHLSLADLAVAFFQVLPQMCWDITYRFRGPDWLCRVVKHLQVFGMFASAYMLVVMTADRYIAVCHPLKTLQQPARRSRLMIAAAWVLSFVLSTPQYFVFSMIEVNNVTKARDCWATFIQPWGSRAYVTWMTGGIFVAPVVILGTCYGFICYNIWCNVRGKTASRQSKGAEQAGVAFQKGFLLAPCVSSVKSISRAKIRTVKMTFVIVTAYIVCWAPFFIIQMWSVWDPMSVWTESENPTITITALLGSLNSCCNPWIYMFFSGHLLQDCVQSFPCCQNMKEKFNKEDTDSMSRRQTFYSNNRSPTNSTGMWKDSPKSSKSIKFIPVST

Row | Compound | Ki [nM] | Mean fpKi (Human V1a)
1 | O=C(C1CCN(c2ccccc2)CC1)N1CCc2nc(-c3ccccc3)[nH]c2-c2cc(Cl)ccc21 [Example 79] | 77.6 | 
2 | Cc1cccc(N2CCC(C(=O)N3Cc4cnn(C)c4Nc4cc(Cl)ccc43)CC2)n1 [Example 125] | 5.89 | 
3 | O=C(C1CCN(c2ccccc2)CC1)N1CCc2nc(-c3cccc(F)c3)[nH]c2-c2cc(Cl)ccc21 [Example 81] | 93.3 | 
4 | Cc1ccc(N2CCC(C(=O)N3CCc4nc(C)[nH]c4-c4cc(Cl)ccc43)CC2)cc1 [Example 91] | 1.26 | 
5 | O=C(C1CCN(c2ccccn2)CC1)N1CCc2nc(N3CCOCC3)[nH]c2-c2cc(Cl)ccc21 [Example 57] | 2.51 | 
6 | Cc1ccc2c(c1)-c1[nH]c(N3CCOCC3)nc1CCN2C(=O)C1CCN(c2cccc(C)n2)CC1 [Example 63] | 1.86 | 
7 | Cc1ccc(N2CCC(C(=O)N3Cc4cnn(C)c4Nc4cc(C)ccc43)CC2)cc1 [Example 129] | 0.324 | 
8 | Cn1ncc2c1Nc1ccccc1N(C(=O)C1CCN(c3ccccn3)CC1)C2 [Example 106] | 12.6 | 
9 | Cc1ccc2c(c1)Nc1c(cnn1C)CN2C(=O)C1CCN(c2ncccc2C)CC1 [Example 110] | 4.57 | 
10 | Cc1cncc(N2CCC(C(=O)N3CCc4nc(N5CCOCC5)[nH]c4-c4cc(C)ccc43)CC2)c1 [Example 70] | 6.61 | 
11 | CCCCc1nc2c([nH]1)CCN(C(=O)C1CCN(c3ccc(C)cn3)CC1)c1ccc(C)cc1-2 [Example 27] | 4.47 | 
12 | COc1ccc(N2CCC(C(=O)N3CCc4nc(N5CCOCC5)[nH]c4-c4cc(C)ccc43)CC2)nc1 [Example 34] | 2.69 | 
13 | O=C(C1CCN(c2ccccn2)CC1)N1CCc2nc(C3CC3)[nH]c2-c2cc(Cl)ccc21 [Example 48] | 10.2 | 
14 | Cc1cccnc1N1CCC(C(=O)N2CCc3nc(N4CCOCC4)[nH]c3-c3ccccc32)CC1 [Example 10] | 5.01 | 
15 | Cc1ccc(N2CCC(C(=O)N3CCc4nc(N5CCOCC5)[nH]c4-c4cc(C)ccc43)CC2)nc1 [Example 1, (9-Methyl-2-morpholin-4-yl-4,5-dihydro-1H-1,3,6-triaza-benzo[e]azulen-6-yl)-(5′-methyl-3,4,5,6-tetrahydro-2H-[1,2′]bipyridinyl-4-yl)-methanone] | 0.977 | 
16 | Cc1ccc2c(c1)-c1nc(CC(C)C)[nH]c1CCN2C(=O)C1CCN(c2ccccn2)CC1 [Example 28] | 13.5 | 
17 | O=C(C1CCN(c2ccccn2)CC1)N1CCc2nc(N3CCCCC3)[nH]c2-c2cc(Cl)ccc21 [Example 50] | 24.5 | 
18 | CCCc1nc2c([nH]1)-c1cc(C)ccc1N(C(=O)C1CCN(c3cc(C)ccn3)CC1)CC2 [Example 22] | 2.04 | 
19 | Cc1ccc(N2CCC(C(=O)N3Cc4cnn(Cc5ccccc5)c4Nc4cc(C)ccc43)CC2)nc1 [Example 114] | 20 | 
20 | CCCc1nc2c([nH]1)-c1cc(C)ccc1N(C(=O)C1CCN(c3ccc(C)cn3)CC1)CC2 [Example 23] | 2.14 | 
21 | COc1cccc(N2CCC(C(=O)N3CCc4nc(N5CCOCC5)[nH]c4-c4cc(C)ccc43)CC2)n1 [Example 64] | 6.31 | 
22 | Cc1nc2c([nH]1)-c1cc(Cl)ccc1N(C(=O)C1CCN(c3ncccn3)CC1)CC2 [Example 7] | 49 | 
23 | Cn1ncc2c1Nc1cc(Cl)ccc1N(C(=O)C1CCN(c3ccccn3)CC1)C2 [Example 115] | 6.92 | 
24 | CCc1ccc(N2CCC(C(=O)N3Cc4cnn(C)c4Nc4cc(C)ccc43)CC2)cc1 [Example 132] | 0.741 | 

Row | Compound | Ki [nM] | Mean fpKi (Human V1a)
25 | CCn1ncc2c1Nc1cc(F)ccc1N(C(=O)C1CCN(c3nccc(C(F)(F)F)n3)CC1)C2 [Example 101, (3-Ethyl-6-fluoro-4,10-dihydro-3H-2,3,4,9-tetraaza-benzo[f]azulen-9-yl)-[1-(4-trifluoromethyl-pyrimidin-2-yl)-piperidin-4-yl]-methanone] | 575 | 
26 | CCn1ncc2c1Nc1cc(Cl)ccc1N(C(=O)C1CCN(c3ccc(C)cn3)CC1)C2 [Example 122] | 0.603 | 
27 | O=C(C1CCN(c2ccccn2)CC1)N1CCc2nc(-c3ccccc3F)[nH]c2-c2cc(Cl)ccc21 [Example 54] | 75.9 | 
28 | Cc1ccc2c(c1)Nc1c(cnn1C)CN2C(=O)C1CCN(c2cccc(C)n2)CC1 [Example 124] | 9.55 | 
29 | Cn1ncc2c1Nc1ccccc1N(C(=O)C1CCN(c3ncccn3)CC1)C2 [Example 98] | 141 | 
30 | Cc1nc2c([nH]1)-c1cc(Cl)ccc1N(C(=O)C1CCN(c3ccccc3)CC1)CC2 [Example 72] | 9.12 | 
31 | COc1cccnc1N1CCC(C(=O)N2CCc3nc(C4CCOCC4)[nH]c3-c3cc(C)ccc32)CC1 [Example 40] | 1.26 | 
32 | Cc1nc2c([nH]1)-c1cc(Cl)ccc1N(C(=O)C1CCN(c3ccc(F)cc3)CC1)CC2 [Example 85] | 11 | 
33 | Cc1ccnc(N2CCC(C(=O)N3CCc4nc(N5CCOCC5)[nH]c4-c4cc(Cl)ccc43)CC2)c1 [Example 58] | 0.646 | 
34 | Cc1cccc(N2CCC(C(=O)N3CCc4nc(N5CCOCC5)[nH]c4-c4ccccc43)CC2)n1 [Example 60] | 12.9 | 
35 | CCCc1nc2c([nH]1)-c1cc(Cl)ccc1N(C(=O)C1CCN(c3ccccn3)CC1)CC2 [Example 47] | 11.7 | 
36 | O=C(C1CCN(c2ccccc2)CC1)N1CCc2nc(C3CC3)[nH]c2-c2cc(Cl)ccc21 [Example 75] | 11 | 
37 | Cc1ccc2c(c1)-c1[nH]c(N3CCOCC3)nc1CCN2C(=O)C1CCN(c2cnccc2C)CC1 [Example 69] | 13.8 | 
38 | O=C(C1CCN(c2ccccn2)CC1)N1CCc2nc(C3CCCCC3)[nH]c2-c2cc(Cl)ccc21 [Example 49] | 23.4 | 
39 | Cc1ccc(N2CCC(C(=O)N3Cc4cnn(C)c4Nc4cc(C)ccc43)CC2)nc1 [Example 112] | 2.82 | 
40 | Cc1ccc2c(c1)Nc1c(cnn1C)CN2C(=O)C1CCN(c2ccc(C(F)(F)F)cc2)CC1 [Example 133] | 5.37 | 
41 | Cc1cccnc1N1CCC(C(=O)N2CCc3nc(N4CCOCC4)[nH]c3-c3cc(F)ccc32)CC1 [Example 14] | 2.51 | 
42 | Cn1ncc2c1Nc1cc(Cl)ccc1N(C(=O)C1CCN(c3ccccc3F)CC1)C2 [Example 134] | 1.74 | 
43 | CCCCc1nc2c([nH]1)CCN(C(=O)C1CCN(c3ccccn3)CC1)c1ccc(C)cc1-2 [Example 26] | 18.2 | 
44 | COc1ccnc(N2CCC(C(=O)N3CCc4nc(C5CCOCC5)[nH]c4-c4cc(C)ccc43)CC2)c1 [Example 41] | 2.34 | 
45 | Cc1ccc2c(c1)-c1[nH]c(N3CCOCC3)nc1CCN2C(=O)C1CCN(c2ccccn2)CC1 [Example 31] | 3.8 | 
46 | COc1cccc(N2CCC(C(=O)N3CCc4nc(C)[nH]c4-c4cc(Cl)ccc43)CC2)c1 [Example 93] | 2.51 | 
47 | CCn1ncc2c1Nc1cc(Cl)ccc1N(C(=O)C1CCN(c3cc(C)ccn3)CC1)C2 [Example 121] | 0.427 | 

Next, values leading:

Row | Ki [nM] | Mean fpKi (Human V1a) | Compound
48 | 4.57 |  | O=C(C1CCN(c2cccc(F)c2)CC1)N1Cc2cccn2Cc2ccccc21 [Example 155]
49 | 14.1 |  | COc1ccc(N2CCC(C(=O)N3Cc4cccn4Cc4ccccc43)CC2)cc1 [Example 164]
50 | 0.631 |  | Cc1ccc2c(c1)Cn1cccc1CN2C(=O)C1CCN(c2ccccn2)CC1 [Example 152]
51 | 25.7 |  | N#Cc1cccc(N2CCC(C(=O)N3Cc4cccn4Cc4ccccc43)CC2)c1 [Example 170]
52 | 117 |  | O=C(C1CCN(c2ncccn2)CC1)N1Cc2cccn2Cc2ccccc21 [Example 143]
53 | 1.55 |  | CCc1ccc(N2CCC(C(=O)N3Cc4cccn4Cc4ccccc43)CC2)cc1 [Example 165]
54 | 3.16 |  | O=C(C1CCN(c2ccccn2)CC1)N1Cc2cccn2Cc2ccccc21 [Example 144]
55 | 28.2 |  | O=C(C1CCN(c2cnccn2)CC1)N1Cc2cccn2Cc2ccccc21 [Example 148]
56 | 0.794 |  | O=C(C1CCN(c2ccccc2)CC1)N1Cc2cccn2Cc2cc(F)ccc21 [Example 151]
57 | 5.62 |  | COc1cccc(N2CCC(C(=O)N3Cc4cccn4Cc4ccccc43)CC2)c1 [Example 163]
58 | 3.16 |  | Cc1cccc(N2CCC(C(=O)N3Cc4cccn4Cc4ccccc43)CC2)c1 [Example 160]
59 | 5.13 |  | Cc1ccc2c(c1)Nc1c(cnn1C)CN2C(=O)C1CCN(c2ccc(C)nc2)CC1 [Example 141]
60 |  | 7.35 | (5H,11H-Benzo[e]pyrrolo[1,2-a][1,4]diazepin-10-yl)-[1-(2-nitro-phenyl)-piperidin-4-yl]-methanone [Example 172]
61 | 1.45 |  | O=C(C1CCN(c2ccc(F)cc2)CC1)N1Cc2cccn2Cc2ccccc21 [Example 156]
62 | 15.1 |  | Cc1ccc(N2CCC(C(=O)N3Cc4cccn4Cc4ccccc43)CC2)nc1 [Example 145]
63 | 3.63 |  | CC(C)c1ccc(N2CCC(C(=O)N3Cc4cccn4Cc4ccccc43)CC2)cc1 [Example 167]
64 | 1.78 |  | COc1cccc(N2CCC(C(=O)N3Cc4cnn(C)c4Nc4cc(Cl)ccc43)CC2)c1 [Example 137]
65 | 162 |  | O=C(C1CCN(c2ccc([N+](=O)[O-])cc2)CC1)N1Cc2cccn2Cc2ccccc21 [Example 174]
66 | 3.89 |  | CCCc1ccc(N2CCC(C(=O)N3Cc4cccn4Cc4ccccc43)CC2)cc1 [Example 166]
67 | 0.589 |  | O=C(C1CCN(c2ccccc2)CC1)N1Cc2cccn2Cc2ccccc21 [Example 149]
68 | 1.29 |  | Cc1cccc(N2CCC(C(=O)N3Cc4cnn(C)c4Nc4cc(Cl)ccc43)CC2)c1 [Example 135]
69 | 151 |  | O=C(C1CCN(c2cccc(-c3ccccc3)c2)CC1)N1Cc2cccn2Cc2ccccc21 [Example 168]
